Assay results as given in US20040014772A1, “Compositions and methods for treating glomerular disorders” (priority 2000, published 2004).
Entries after “also recorded” stand apart in the source; their conditions may differ.

What was measured:
[1] = tested on: glomerular epithelial cells GEC; test: PAN-induced cytotoxicity to GEC (trypan blue exclusion, LDH release); assay type: cell-based, rat; settings: PAN 1.5 mM 48 h; preincubation CM 2 mM, PB 25 μM, RN 1 mM, PIP 0.2 mM, pyruvate 10 mM
Procedure: Rat GEC (kindly provided by both Dr. Saulo Klahr, Washington University School of Medicine, St. Louis, Mo., and Dr. […], University of Texas Health Science Center, San Antonio, Tex.) were maintained in RPMI-1640 medium supplemented with 10% FBS, 15 mM HEPES, insulin, penicillin, streptomycin and L-glutamine in a humidified atmosphere of 95% air-5% CO2 at 37° C. and fed at intervals of 3 days ([…] et al, 1995, Biochem. Biophys. 318(2):286-294). The cells were maintained in 75 Cm^2 tissue culture flasks and the monolayers were subcultured using 0.05% trypsin-0.53 mM EDTA in Hank's balanced salt solution (HBSS). For the experimental study, the cells were grown in 12-well tissue culture plate until confluence. On the day of experiment, the medium was discarded and the confluent GEC monolayer was washed twice with HBSS. The cells were then incubated with various concentrations of PAN (0, 0.1, 0.5, 1.0, 1.5, and 2.0 mM in HBSS) for different periods of time (0, 6 hours, 1 day, 2 days, 3 days and 4 days) at 37° C. At the end of the incubation, the incubation medium was discarded and the GEC monolayer was harvested by trypsinization with 0.05% trypsin-0.53 mM EDTA for 5 min at 37° C. Isolated cells were suspended in HBSS to give about 10^6 cells/ml. PAN-induced cytotoxicity to GEC was measured by the trypan blue exclusion assay (Baliga et al, 1996, Kidney Intl. 50:1118-1124) and lactate dehydrogenase (LDH) release assay (Baliga et al., 1998, Kidney Intl. 53:394-401.). The latter is the percentage of LDH released into the medium, to total LDH recovered from both medium and cellular fraction. […] After the incubation, the cell monolayers were washed twice with HBSS and then incubated with cytotoxic dose of PAN in HBSS for a period of time necessary to induce consistent cytotoxicity ([…], 48 h, based on the concentration and time course studies) at 37° C. PAN induced cytotoxicity on GEC was measured by trypan blue exclusion assay.

[2] = tested on: H2O2 in the glomeruli; test: Ultrastructural localization of H2O2 (cerium histochemistry) in rat kidney; assay type: in vivo; settings: rats
Procedure: The principle of this method is that cerium ions combine with H2O2 generated by the cell that results in a precipitate with properties suitable for ultrastructural histochemistry. Localization of H2O2 generation was performed following the procedure of Neale et al (PNAS, USA, 1993, 90:3645-3649.). Following PAN treatment, the left kidney was perfused at 37° C. by retrograde aortic perfusion with 4 ml of each of the following solutions: a) PBS; b) 20 mmol Tris-maleate buffer (pH 7.2) containing 7% sucrose (TMS); c) TMS containing 1 mmol aminotriazole; d) TMS containing 10 mmol aminotriazole, 1 mmol cerium chloride heptahydrate and 2.56 mmol B-NADPH; and e) TMS followed by 10 mmol of 2.5% glutaraldehyde as the fixative. Pieces of the kidney were fixed further for 2 hours in glutaraldehyde and embedded in Epon. Sections from the tissue block were routinely stained with 4% aqueous uranyl acetate and alkaline lead, and examined under a Leo 906 electron microscope.

[3] = Renal function (serum creatinine, BUN) in PAN-treated rats; assay type: in vivo, rat; settings: PAN-treated rats with or without PIP or CM
Procedure: BUN and creatinine were measured by using assay kits from Sigma.

[4] = tested on: microsomal CYP isolated from GEC; test: H2O2 generation and catalytic iron release from microsomes isolated from GEC; assay type: biochemical, rat; design: H2O2 generation from GEC microsomal fraction: dose or concentration left out as unconfirmed
Procedure: The generation of H2O2 and catalytic iron from microsomal CYP isolated from GEC was also analyzed.

CN(C)c1ncnc2c1ncn2[C@@H]1O[C@H](CO)[C@@H](N)[C@H]1O [PAN, puromycin aminonucleoside]
PAN-induced cytotoxicity to GEC [1]: cytotoxic; also recorded: cell death in a time and dose dependent manner
cerium-H2O2 reaction product in the glomerular basement membrane ([2]; 1 hour and 6 hours after PAN injection): diffusely distributed throughout the glomerular basement membrane
foot processes (electron microscopy) ([2]; fourth day after PAN, onset of proteinuria): marked fusion of the foot processes
serum creatinine ([3]; control 0.72±0.2): 0.85 ± 0.2 mg/dL
BUN ([3]; control 21±3, P<0.05 vs control): 33 ± 4 mg/dL
H2O2 generation from GEC microsomal fraction ([4]; PAN): H2O2 generation in a time dependent fashion
catalytic iron release from GEC microsomal fraction ([4]; PAN 91.5 mM) as printed): marked increase
